Earlier results, collected in patent publication US11214591B2, “Enzyme compositions, steroid derivatives, enzyme inhibitors, and methods of making same for pharmaceutical applications” (BOARD OF REGENTS, THE UNIVERSITY OF TEXAS SYSTEM, priority 2018, dated 2022).

What was measured:
[1] = in vivo
[2] = in vivo; remark: listed apart in the source
[3] = mice feeding study; bile acid composition of micelles
[4] = male rats

In the case of CC(=O)O[C@H]1CC[C@@]2(C)C(=CC(=O)[C@@H]3[C@@H]2CC[C@]2(C)C(=O)CC[C@@H]32)C1 [7-keto DHEA-3OAc, 7-keto dehydroepiandrosterone-3-acetate], the PTSD symptoms [1] is given as “reduce post-traumatic stress disorder (PTSD) symptoms” and the “resting metabolic rate associated with dieting” value [2] is given as “reverse the resting metabolic rate associated with dieting”.

For C[C@H](CCC(=O)O)[C@H]1CC[C@H]2[C@@H]3[C@H](O)C[C@@H]4C[C@H](O)CC[C@]4(C)[C@H]3CC[C@]12C [chenodeoxycholic acid], the cholesterol absorption [3] is listed as 60%.

In the case of C[C@]12CC[C@H](O)CC1=CC(=O)[C@@H]1[C@@H]2CC[C@]2(C)C(=O)CC[C@@H]12 [7-Keto DHEA, 7-keto dehydroepiandrosterone], the “voluntary intake of ethanol” value [4] is listed as “decreased voluntary intake of ethanol”.
